# Marks after values point to notes of the source that are not given here.
# Assays:
# Eimeria tenella = experiment: In vivo anticoccidial efficacy evaluation in broilers challenge-inoculated with Eimeria tenella; set-up: species or system Ross broilers; key to ACI: ACI out of 200 points; higher = better; ≥160 very excellent; Lesion index / Oocyst index: scale not given here; details: for Survival rate after challenge inoculation (%): Eimeria tenella-infected broilers, 10,000 oocysts oral, up to 8th day after challenge; for Survival rate after challenge inoculation (%) / BWG after challenge inoculation (g/d) / ACI / Lesion score / Oocyst index / Lesion index / Daily weight gain compared to negative control group (RWG, %): feed with salinomycin 60 ppm, resveratrol 125 ppm or pterostilbene 125 ppm; for BWG after challenge inoculation (g/d) / anticoccidial index: Eimeria tenella-infected broilers; for BWG after challenge inoculation (g/d): before challenge to 7th day after; for anticoccidial index: Table 5; for ACI: anticoccidial index by Equation 2, out of 200 points; for Lesion score: appendix lesion, scale 0-4, 8th day after challenge; for Oocyst index: index from oocyst excretion (%) compared to infected negative control group; for Lesion index: lesion score x 10; for Daily weight gain compared to negative control group (RWG, %): relative to non-infected negative control group; for anticoccidial efficacy compared with salinomycin: comparison of anticoccidial index with salinomycin treatment group
# Method: An in vivo anticoccidial efficacy evaluation test was performed in an animal experiment facility in Gyeongsangnam-do, South Korea. One-day-old female Ross broilers were individually weighed and randomly divided into groups to use in an experiment. Matters and conditions for experimental design were described in Table 2.
# A breeding farm was managed according to the Korean poultry breeding management guidelines. Cages and the breeding farm were cleaned and disinfected before starting the test. The temperature of […] and the humidity of 40 to 50% of the breeding farm were maintained, and it was continuously monitored. General feed was fed according to the nutritional requirements of broilers, and the mixing ratio was described in Table 3.
# To the general feed (Table 3), each material (salinomycin (CAS No. 53003-10-4), resveratrol (sigma) or pterostilbene (sigma) was added at a concentration described in Table 4 below, respectively, and was self-mixed.
# Antibiotics and supplements were not used in general feed and mixed feed, and no anticoccidial agent other than each material was added. Broilers were fed ad libitum throughout the experiment period. After putting 6 1-day-age broilers in cages randomly placed for each of the control group or test group and breeding, general feed was fed for 14 days, and then the mixed feed prepared above was ingested by dividing by control group or test group.
# Coccidiosis induction was performed by oral inoculation (challenge inoculation) in an oral tube type of 10,000 oocysts (eggs) with over 90% mature (sporulation) Eimeria tenella per one individual to 21-day-old broilers.
# The anticoccidial efficacy by test group designed in Example 1-2 above was shown as an anticoccidial index (ACI), and the anticoccidial index was calculated by Equation 2 below. The ACI score is out of 200 points, and the higher the ACI score, the more excellent the anticoccidial ability, and when it is 120 points or more to less than 140 points, it is determined that it is effective as an anticoccidial material, and when it is 140 points or more to less than 160 points, it is determined that it is excellent as an anticoccidial material, and when it is 160 points or more, it is determined that the anticoccidial effect is very excellent (Luis Miguel De Pablos et al., Anticoccidial activity of maslinic acid against infection with Eimeria tenella in chickens, Parasitol Res, 2010). Anticoccidial index(ACI)=(survival rate after challenge inoculation (%))+(daily weight gain compared to negative control group(RWG, %))−(lesion score×10)−(fecal oocyst excretion amount index) (Equation 2)
# 1) Survival rate: the number of dead individuals was recorded daily, and post mortem autopsy was performed to determine a cause of mortality, and the number of individuals who died due to causes other than coccidiosis was excluded. The survival rate (%) up to the 8th day after challenge inoculation was used for anticoccidial index calculation. The measured survival rate was described in Table 5 below.
# 2) Daily weight gain: body weight was measured for each cage before challenge inoculation with a protozoan into an individual and at the 7th day after challenge inoculation, and the difference was divided by the number of days to calculate the daily weight gain (ADG, g/d). ‘Daily weight gain compared to the negative control group (RWG, %)’ which was calculated by dividing the daily weight gain (ADG, average daily gain; g/d) of each experimental group by the weight gain (ADG, g/d) of the non-infected negative control group and multiplying by 100 was used for anticoccidial index calculation. The daily weight gain (ADG, g/d) measured in each control group and test group and the daily weight gain compared to the negative control group (RWG, %) were shown in Table 5 below.
# 3) Lesion scoring: On the 8th day after challenge inoculation, an autopsy was conducted for 6 broilers per cage, and the intestines were incised and opened. […]
# [1] = system: Eimeria tenella protozoan (sporozoite); experiment: Direct killing effect against Eimeria tenella protozoan (sporozoite), microscopic count of alive sporozoites; details: for concentration showing death rate of 50% or more against the protozoan: tested 16 to 500 ppm
# Method: In the present example, protozoan (sporozoite) direct killing ability evaluation was conducted against 1 representative Eimeria kind known to be infected in most farms (E. tenella).
# A certain amount of oocysts of each coccidial protozoan was put in a tube containing glass beads and pulverized, and then to remove the crushed oocyst cell wall and other debris, internal sporocysts were purified using the percoll density gradient, and washed with PBS solution. A reagent comprising sodium taurocholic acid (Sigma aldrich, USA) and trypsin (Gibco, USA), respectively, was treated to sporocysts of Eimeria tenella for excystation of the internal sporozoites, and they were incubated, and then they were washed with PBS solution once and the protozoa were obtained.
# After reacting the pterostilbene, pinostilbene and anticoccidial agents, diclazuril and gallic acid (hereinafter, material) with the protozoan of Eimeria tenella at various concentrations of 16 to 500 ppm, respectively, only alive protozoa (sporozoites) were counted through microscopic observation.
Structure (SMILES),Survival rate after challenge inoculation (%) (Eimeria tenella),BWG after challenge inoculation (g/d) (Eimeria tenella),anticoccidial index (Eimeria tenella) [points],ACI (Eimeria tenella),Lesion score (Eimeria tenella),Oocyst index (Eimeria tenella),Lesion index (Eimeria tenella),"Daily weight gain compared to negative control group (RWG, %) (Eimeria tenella) [%]",anticoccidial efficacy compared with salinomycin (Eimeria tenella),Protozoal death rate by material treatment concentration (%) ([1]; 16 ppm),Protozoal death rate by material treatment concentration (%) ([1]; 32 ppm),Protozoal death rate by material treatment concentration (%) ([1]; 62 ppm),Protozoal death rate by material treatment concentration (%) ([1]; 125 ppm),Protozoal death rate by material treatment concentration (%) ([1]; 250 ppm),Protozoal death rate by material treatment concentration (%) ([1]; 500 ppm),concentration showing death rate of 50% or more against the protozoan [1] [ppm]
"CC[C@@H](C(=O)[C@@H](C)[C@@H](O)[C@H](C)[C@@H]1O[C@@H]([C@@H](CC)C(=O)O)CC[C@@H]1C)[C@H]1O[C@]2(C=C[C@@H](O)[C@]3(CC[C@@](C)([C@H]4CC[C@](O)(CC)[C@H](C)O4)O3)O2)[C@H](C)C[C@@H]1C [Salinomycin, salinomycin, reference compound]",100,360^cd g/d,149,149,2.3^c,10,23,82,,,,,,,,
Oc1ccc(/C=C/c2cc(O)cc(O)c2)cc1 [Resveratrol],100,381^bcd g/d,149,149,2.95,10,29,87,equivalent or superior,,,,,,,
"COc1cc(O)cc(/C=C/c2ccc(O)cc2)c1 [Pinostilbene, 3-Methoxy-4′,5-dihydroxy-trans-stilbene]",,,,,,,,,,0,0,0,0,50.5,61.3,≥ 250
"O=C(O)c1cc(O)c(O)c(O)c1 [Gallic acid, gallic acid, reference compound]",,,,,,,,,,0,0,0,0,26,32,
"N#CC(c1ccc(Cl)cc1)c1c(Cl)cc(-n2ncc(=O)[nH]c2=O)cc1Cl (stereo not shown) [Diclazuril, diclazuril, reference compound]",,,,,,,,,,0,0,0,0,35,44,
"COc1cc(/C=C/c2ccc(O)cc2)cc(OC)c1 [Pterostilbene, 3,5-Dimethoxy-4′-hydroxystilbene]",100,389^bc g/d,151,151,2.8^b,10,28,89,equivalent or superior,33.3,63.4,74.2,100,100,100,≥ 32

# Source: patent US12642776B2, “Anticoccidial composition comprising stilbene-based compound, and use thereof” (CJ CHEILJEDANG CORPORATION, priority 2020, dated 2026)
